Laboratory results as given in publication PMC4207401, “A Novel Inhibitor of Mammalian Triosephosphate Isomerase Found by an In Silico Approach” (International Journal of Medicinal Chemistry, 2014).
Like-named read-outs stand apart in the source and are kept apart here.

Target: T1, triosephosphate isomerase (rabbit muscle TIM) (Oryctolagus cuniculus, UniProt P00939)
T1 construct: gene TPI1; native enzyme from rabbit muscle, commercial reagent (Sigma-Aldrich); homodimer; 1R2R is the rabbit TIM structure used for docking
T1 sequence (P00939 2-249): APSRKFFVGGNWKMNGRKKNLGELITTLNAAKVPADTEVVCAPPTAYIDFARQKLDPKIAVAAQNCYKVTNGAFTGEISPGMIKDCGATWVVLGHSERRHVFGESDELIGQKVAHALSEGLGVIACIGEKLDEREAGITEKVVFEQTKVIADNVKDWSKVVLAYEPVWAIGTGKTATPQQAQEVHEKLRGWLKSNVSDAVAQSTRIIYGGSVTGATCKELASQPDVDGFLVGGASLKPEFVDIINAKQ
Assay: coupled assay with alpha-glycerophosphate dehydrogenase, NADH at […] nm
Type: biochemical

Ki (glyceraldehyde-3-phosphate 0.4 mM (= Km), NADH 0.1 mM, pH 8.0, Ki calculated from IC50 by Ki = Kapp/(1 + [S]/Km), read-out: 2) | Ki (read-out: K i) | Compound
> 440 µM |  | O=C1C2=C(Nc3[nH]c(=O)[nH]c(=O)c3[C@H]2c2ccccc2)c2ccccc21 [compound 2, Compound 2]
 | 44 µM | Nc1nc2c(c(=O)[nH]1)C(c1ccccc1)C1=C(N2)c2ccccc2C1=O (racemic) [compound 1, 2-amino-5-phenyl-3H-indeno[2′,1′:5,6]pyrido[2,3-d]pyrimidine-4,6(5H,11H)-dione]
